{"source": "patent US20020150961A1", "about": "“Activity-dependent cysteine protease profiling reagent” (The Regents of the University of California Office of …, priority 2000, published 2002)", "key": {"[1]": {"tested_on": "multiple proteases in DC2.4 lysates", "experiment": "Competition labeling in DC2.4 lysates with 125I-DCG-04", "type": "biochemical", "details": "for potency and selectivity, competition of 125I-DCG-04 labeling of multiple polypeptides: 50 μM library member, DC2.4 lysates, pH 5.5", "experimental": "Lysates from the dendritic cell line DC2.4 were prepared at pH 5.5 as described above. Purified cathepsin H was purchased from Calbiochem (San Diego, Calif.). Samples of lysates (100 μg total protein in 100 μL buffer B; 50 mM Tris pH 5.5, 5 mM MgC12, 2 mM DTT) or purified cathepsin H (1 μg protein in 100 μL buffer A) were preincubated with 50 μM of each library member (diluted from 5 mM DMSO stocks) for 2 hrs at room temperature. […] Samples were quenched by the addition of 4×sample buffer to 1×followed by boiling for 5 minutes. Samples were analyzed by SDS-PAGE followed by autoradiography."}, "[2]": {"tested_on": "papaine family of cysteine proteases", "details": "literature; cited from earlier work"}, "invasive cells": {"tested_on": "invasive cells", "details": "treatment of invasive cells, literature; cited from earlier work"}, "[3]": {"tested_on": "papain family cysteine proteases in DC2.4 cells", "experiment": "In situ fluorescence labeling of DC2.4 cells", "type": "cell-based", "details": "pre-treatment 10 mM for 1 hour", "experimental": "Dendritic cells (DC2.4) were plated on a 24-well dish (10^5 cells/well) embedded with sterile microscope cover slips, in RPMI medium containing 10% FBS. After 16 hours, cells were washed with 1 ml TC-199 medium and incubated with […] of Bodipy-DCG-04 in TC-199 for 12 hours at 37° C. Cells were washed 3 times with 1 ml TC-199 and incubated for 5 hr in probe-free medium. Subsequently, cells were either lysed in buffer A and analyzed on a 12.5% SDS-PAGE using a fluorescent scanner or viewed under a fluorescent microscope."}, "[4]": {"tested_on": "cysteine proteases in DC2.4 dendritic cell extracts", "experiment": "Direct labeling of DC2.4 total cell extracts with probes (affinity blot / autoradiography)", "type": "binding", "experimental": "Tissues were dounce-homogenized in buffer A (50 mM Tris pH 5.5, 1 mM DTT, 5 mM MgCl2, 250 mM sucrose) and extracts centrifuged at 1,100×g for 10 min at 4° C. The resulting supernatant was centrifuged at 22,000×g for 30 min at 4° C. and final supernatants used for all labeling experiments. Cells were lysed using glass beads (<104 microns) in buffer A and supernatants centrifuged for 15,000×g for 15 min at 4° C. The total protein concentration of the final supernatants (soluble) was determined by BCA protein quantification (Pierce).\nEquivalent amounts of radioactive inhibitor stock solutions (approx. 10^6 cpm per sample) were used for all labeling experiments. Samples of lysates (100 μg total protein in 100 μL buffer; 50 mM Tris pH 5.5, 5 mM MgC12, 2 mM DTT) were labeled for 1 hour at 25° C. unless noted otherwise. Samples were quenched by dilution of 4×SDS sample buffer to 1×(for 1D SDS-PAGE) or by dissolving urea to a final concentration of 9.5 M (for 2D SDS-PAGE).\nQuenched DCG-04 labeled samples were separated by SDS/PAGE […] and transferred to nitrocellulose using semi-dry apparatus. Membranes were blocked using phosphate buffered saline (PBS) and 5% (w/v) dry milk for 30 min at 25° C. Blots were washed briefly with PBS/0.2% Tween (PBS-Tween) and treated with avidin-horseradish peroxidase conjugate (VectaStain) in PBS-Tween for 30 min. at 25° C. […]"}, "cathepsin B": {"target": "T1, cathepsin B (Mus musculus, UniProt P10605)", "T1 construct": "This method allowed analysis of cathepsin B specificity in crude extracts; endogenous in cells; host or cells: DC2.4 dendritic cell line", "T1 sequence (P10605 80-333 limits assumed)": "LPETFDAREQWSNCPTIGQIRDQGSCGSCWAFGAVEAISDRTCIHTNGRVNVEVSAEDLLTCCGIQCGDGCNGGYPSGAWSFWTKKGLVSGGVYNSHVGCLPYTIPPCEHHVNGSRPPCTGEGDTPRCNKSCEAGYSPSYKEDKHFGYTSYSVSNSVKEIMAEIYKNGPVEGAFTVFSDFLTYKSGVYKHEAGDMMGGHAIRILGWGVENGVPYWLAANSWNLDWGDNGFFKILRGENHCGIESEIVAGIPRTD", "experiment": "Competition labeling in DC2.4 lysates with cathepsin B-specific 125I-MB-074", "type": "biochemical", "details": "P2 library preincubation", "experimental": "Lysates from the dendritic cell line DC2.4 were prepared at pH 5.5 as described above. Purified cathepsin H was purchased from Calbiochem (San Diego, Calif.). Samples of lysates (100 μg total protein in 100 μL buffer B; 50 mM Tris pH 5.5, 5 mM MgC12, 2 mM DTT) or purified cathepsin H (1 μg protein in 100 μL buffer A) were preincubated with 50 μM of each library member (diluted from 5 mM DMSO stocks) for 2 hrs at room temperature. Samples were then labeled by addition of either ^125I-DCG-04 or ^125I-MB-074 to each sample followed by further incubation at room temperature for 1 hour. Samples were quenched by the addition of 4×sample buffer to 1×followed by boiling for 5 minutes. Samples were analyzed by SDS-PAGE followed by autoradiography."}, "[5]": {"tested_on": "papain family proteases in rat liver", "experiment": "Affinity purification and identification of DCG-04 labeled proteases from rat liver", "type": "binding", "details": "single-step affinity purification, LC-MS-TOF CID", "experimental": "Protein lysates prepared in buffer A (50 mM Acetate buffer, 5 mM DTT, 0.1% Triton X-100) were incubated with […] for 1.5 hours at room temperature. After incubation the protein lysate was passed through a PD10 column pre-equilibrated with buffer B (50 mM Tris-Base 7.4, 150 mM NaCl) and proteins were eluted with the same buffer. SDS was added to eluted proteins to a final concentration of 0.5% and the solution boiled for 10 minutes, diluted 2.5 fold with buffer B (to reduce SDS concentration to 0.2%) and incubated with […] of pre-washed Streptavidin beads for 1 hour at room temperature. Beads were washed 5 times with buffer B, and bound proteins were eluted by boiling for 10 minutes in the presence of […]. For 2D analysis, samples in SDS sample buffer were diluted 1:1 with IEF sample buffer ([…], 5% BME, 2% NP-40, 1.6% pH 5-7 ampholines and 0.4% pH 3.5-10 ampholines) and pure NP-40 was added (25% of volume of sample). Samples were applied to IEF tube gels and electrophoresed at 1000V for 13 hours followed by separation in the second dimension on 15% SDS-PAGE gels. […] The mass range recorded in survey acquisitions was m/z 300-1400. […] All the data were measured using a two point external calibration. […]"}, "[6]": {"tested_on": "cysteine proteases in rat kidney", "experiment": "Affinity purification and identification of DCG-04 modified proteins from rat kidney", "type": "binding", "details": "monomeric-avidin purification, mass spectrometry", "experimental": "A soluble fraction of rat kidney lysate (80 mg total protein) was diluted into anion exchange starting buffer (50 mM Tris, 50 mM NaCl, pH 9.0). The lysate was applied to a […] anion exchange column (Amersham Pharmacia Biotech) and eluted using a linear gradient of 0.05-1M NaCl, pH 9. An aliquot from each fraction (50 μL) was incubated with 50 μM DCG-04 at 25° C. for 1hr and analyzed on a 12.5% SDS/PAGE gel followed by affinity blotting as described above. The fractions containing peak labeling of the 25 kD-30 kD bands were pooled and DCG-04 was added to a final concentration of 50 μM. Pools were incubated at 25° C. for 2 hours and then 12 hours at 4° C. Unbound inhibitor was removed and buffer was exchanged with PBS using a PD-10 column (Pharmacia). Samples were applied to a monomeric-avidin column (1 ml bed volume; Pierce) and the column was washed with 6×1 ml fractions of 1M NaCl. Bound proteins were eluted with 0.5 ml fractions of 2 mM Biotin/100 mM NH4HCO3 buffer. All wash and eluent fractions were analyzed by SDS/PAGE and silver staining. The fractions containing the labeled 25-30 kD bands were pooled, the volume reduced by lyophilization and solid urea added to 9.5 M along with BME to 5%, NP-40 to 2%, pH 5-7 ampholytes to 1.6% and pH 3.5-10 ampholytes to 0.4%. […]"}}}
{"compound": "CC(C)C[C@H](NC(=O)[C@H]1O[C@@H]1C(=O)O)C(=O)NCCCCN=C(N)N", "note": "[E-64]", "values": [{"measurement": "competition of 125I-DCG-04 labeling", "setting": "[1]; increasing concentrations, preincubation, DC2.4 extracts", "value": "effectively competed"}, {"measurement": "reactivity toward cysteine proteases", "setting": "[2]", "value": "broadly reactive"}, {"measurement": "effect on cellular invasion", "setting": "invasive cells", "value": "block in cellular invasion into a synthetic matrix"}, {"measurement": "inhibition of in situ protease labeling by green-DCG-04", "setting": "[3]", "value": "completely inhibited"}]}
{"compound": "CC(C)CC(NC(=O)C1OC1C(=O)O)C(=O)NCCc1ccc(O)cc1", "note": "(stereo not shown) [JPM-565, reference compound]", "values": [{"measurement": "labeling as detected by affinity blotting", "setting": "[4]; non-radiolabeled compound, DC2.4 extracts", "value": "no labeling"}]}
{"compound": "N[C@@H](CC(=O)O)C(=O)O", "note": "[aspartic acid]", "values": [{"measurement": "potency and selectivity, competition of 125I-DCG-04 labeling of multiple polypeptides", "setting": "[1]", "value": "relatively poor activity overall, they showed some degree of specificity against polypeptide 2"}]}
{"compound": "NCC(=O)O", "note": "[glycine]", "values": [{"measurement": "potency and selectivity, competition of 125I-DCG-04 labeling of multiple polypeptides", "setting": "[1]", "value": "relatively poor activity overall, they showed some degree of specificity against polypeptide 2"}]}
{"compound": "CC[C@H](C)[C@H](N)C(=O)O", "note": "[isoleucine]", "values": [{"measurement": "potency and selectivity, competition of 125I-DCG-04 labeling of multiple polypeptides", "setting": "[1]", "value": "highest activity and the lowest amount of specificity"}, {"measurement": "activity, competition of 125I-MB-074 labeling of cathepsin B", "setting": "cathepsin B", "value": "highest activity"}]}
{"compound": "CCCC[C@H](N)C(=O)O", "note": "[norleucine]", "values": [{"measurement": "potency and selectivity, competition of 125I-DCG-04 labeling of multiple polypeptides", "setting": "[1]", "value": "highest activity and the lowest amount of specificity"}, {"measurement": "activity, competition of 125I-MB-074 labeling of cathepsin B", "setting": "cathepsin B", "value": "highest activity"}]}
{"compound": "N[C@@H](Cc1ccccc1)C(=O)O", "note": "[phenylalanine]", "values": [{"measurement": "potency and selectivity, competition of 125I-DCG-04 labeling of multiple polypeptides", "setting": "[1]", "value": "specificity for polypeptides 2, 3, 4, and 5"}, {"measurement": "activity, competition of 125I-MB-074 labeling of cathepsin B", "setting": "cathepsin B", "value": "highest activity followed by the aromatic amino acids"}]}
{"compound": "N[C@@H](Cc1ccc(O)cc1)C(=O)O", "note": "[tyrosine]", "values": [{"measurement": "potency and selectivity, competition of 125I-DCG-04 labeling of multiple polypeptides", "setting": "[1]", "value": "specificity for polypeptides 2, 3, 4, and 5"}, {"measurement": "activity, competition of 125I-MB-074 labeling of cathepsin B", "setting": "cathepsin B", "value": "highest activity followed by the aromatic amino acids"}]}
{"compound": "CC(C)[C@H](N)C(=O)O", "note": "[valine containing compound]", "values": [{"measurement": "potency and selectivity, competition of 125I-DCG-04 labeling of multiple polypeptides", "setting": "[1]", "value": "competed for polypeptides 1, 2 and cathepsin B but had little effect on the remaining species"}, {"measurement": "activity, competition of 125I-MB-074 labeling of cathepsin B", "setting": "cathepsin B", "value": "highest activity"}]}
{"compound": "DCG-04", "values": [{"measurement": "labeling of major 20-40 kDa species after preheating of samples", "setting": "[4]; preheated to 100° C. for 1 min before adding compound", "value": "lost upon heat denaturation"}, {"measurement": "proteases identified via probe", "setting": "[5]", "value": "cathepsins Z, H, C and J"}, {"measurement": "potency and selectivity, competition of 125I-DCG-04 labeling of multiple polypeptides", "setting": "[1]", "value": "highest activity and the lowest amount of specificity"}, {"measurement": "active cysteine proteases identified via probe", "setting": "[6]", "value": "cathepsin B, H, and L"}, {"measurement": "activity, competition of 125I-MB-074 labeling of cathepsin B", "setting": "cathepsin B", "value": "highest activity"}]}
